Results as given in patent publication US20050277699A1, “Method of decreasing sebum production and pore size” (Unilever Home & Personal Care USA, Division Of Conopco, Inc., priority 2004, published 2005).

Tested on: human sebocytes
Assay: Sebocyte assay: 14C-acetate label remaining in cultured sebocytes (sebum suppression)
Type: cell-based
Protocol: Secondary cultures of human sebocytes obtained from an adult […] were grown in 96-well tissue culture plates (Packard) until three days post-confluence. Sebocyte growth medium consisted of Clonetics Keratinocyte Basal Medium (KBM) supplemented with 14 ug/ml bovine pituitary extract, 0.4 ug/ml hydrocortisone, 5 ug/ml insulin, 10 ng/ml epidermal growth factor, 1.2×10^−10 M cholera toxin, 100 units/ml penicillin, and 100 ug/ml streptomycin. All cultures were incubated at 37° C. in the presence of 7.5% CO2. Medium was changed three times per week. On the day of experimentation, the growth medium was removed and the sebocytes washed three times with sterile Dulbecco's Modified Eagle Medium (DMEM; phenol red free). Fresh DMEM (200-microliters per well) was added to each sample (5 replicates) with 5-microliters of test agent (DL-α-Difluoromethylornithine hydrochloride) solubilized in water. Controls consisted of addition of water alone. Each plate was returned to the incubator for 20-hours followed by the addition of ^14C-acetate buffer (5 mM final concentration, 56 mCi/mmol specific activity). Sebocytes were returned to the incubator for 4-hours afterwhich each culture was rinsed 3-times with phosphate buffered saline to remove unbound label. Radioactive label remaining in the sebocytes was determined using a Packard TopCount scintillation counter. Statistical significance (p value) was calculated using student's t-test. Phenol Red, a known sebum suppressive agent, was employed as a positive control. […] The experiment was repeated as above with modifications. On the day of experimentation, the growth medium was removed and the sebocytes washed three times with sterile Dulbecco's Modified Eagle Medium (DMEM; phenol red free). Fresh DMEM was added to each sample (3 replicates) with 5-microliters of test agent (DL-a-Difluoromethylornithine hydrochloride) solubilized in water. Controls consisted of addition of water alone. Each plate was returned to the incubator for 68-hours followed by the addition of ^14C-acetate buffer (5 mM final concentration, 56 mCi/mmol specific activity). Sebocytes were returned to the incubator for 4-hours, followed by rinsing each culture 3-times with phosphate buffered saline to remove unbound label. Radioactive label remaining in the sebocytes was determined using a Packard TopCount scintillation counter. Statistical significance (p value) was calculated using student's t-test.

| SMILES | % of Control (radioactive label remaining in the sebocytes) (10 uM, 20-hours incubation then 4-hours 14C-acetate (24-hours), 5 replicates) [%] | % of Control (radioactive label remaining in the sebocytes) (10 uM, 68-hours incubation then 4-hours 14C-acetate, 3 replicates) [%] | % of Control (radioactive label remaining in the sebocytes) (1000 uM, 20-hours incubation then 4-hours 14C-acetate (24-hours), 5 replicates) [%] | % of Control (radioactive label remaining in the sebocytes) (1000 uM, 68-hours incubation then 4-hours 14C-acetate, 3 replicates) [%] | sebum suppressive activity (in words) (after prolonged incubation (68-hours + 4-hours)) | activity at 28.2 µM (Homo sapiens, 28.2 uM, 20-hours incubation then 4-hours 14C-acetate (24-hours), positive control, read-out: % of Control (radioactive label remaining in the sebocytes)) [%] | activity at 282 µM (Homo sapiens, 282 uM, 20-hours incubation then 4-hours 14C-acetate (24-hours), positive control, read-out: % of Control (radioactive label remaining in the sebocytes)) [%] |
| --- | --- | --- | --- | --- | --- | --- | --- |
| Cl.NCCCC(N)(C(=O)O)C(F)F (racemic) [DFMO, DL-α-Difluoromethylornithine hydrochloride] | 95.5 | 59.5 | 88.0 | 41.4 | enhanced sebum suppressive activity | – | – |
| O=S1(=O)OC(c2ccc(O)cc2)(c2ccc(O)cc2)c2ccccc21 [Phenol Red] | – | – | – | – | – | 22.1 | 34.5 |
